Experimental data taken from ChEMBL document CHEMBL5724558, “Image-based profiling of drug vulnerabilities in CRC organoids” (2024).
Several values for one entry are separate records, joined by “and”; a condition that tells them apart may be missing. Identical values can stand only once.

Legend:
Assay type in all cases: functional, Homo sapiens
Set-up in all cases: dose or concentration left out as unconfirmed
Colon cancer organoid [1] = assay: (§1) Image-based profiling of donated chemical probes and chemogenomic kinase set in O21 CRC organoid. Image analysis is performed on the sum area metric, and the data were normalized to the DMSO control. After imaging the organoid viability is measured using the OneGloEX Luciferase Assay System. The normalized viability data and sum area are reported.
Colon cancer organoid [2] = assay: as §1, with “O06” for “O21”
Colon cancer organoid [3] = assay: as §1, with “O09” for “O21”

| SMILES | Cell Viability (Colon cancer organoid [1]; Replication number 1) | Cell Viability (Colon cancer organoid [1]; Replication number 2) | Cell Viability (Colon cancer organoid [2]; Replication number 1) | Cell Viability (Colon cancer organoid [2]; Replication number 2) | Cell Viability (Colon cancer organoid [3]; Replication number 1) | Cell Viability (Colon cancer organoid [3]; Replication number 2) |
| --- | --- | --- | --- | --- | --- | --- |
| CN(C)C/C=C/C(=O)Nc1cc2c(Nc3ccc(F)c(Cl)c3)ncnc2cc1O[C@H]1CCOC1.O=C(O)/C=C\C(=O)O.O=C(O)/C=C\C(=O)O [AFATINIB DIMALEATE] | 61.0357% and 82.5087% | 65.3803% and 88.665% | 4.81% and 9.6592% | 4.363% and 10.2005% | 8.847% and 13.6138% | 6.151% and 10.3121% |
| COc1ccc2c(O[C@@H]3C[C@H]4C(=O)N[C@]5(C(=O)O)CC5/C=C\CCCCC[C@H](NC(=O)OC5CCCC5)C(=O)N4C3)cc(-c3csc(NC(=O)C(C)C)n3)nc2c1C (stereo not given in full) [BI 1230] | 91.3171% and 103.622% | 114.827% and 120.408% | 145.195% and 153.864% | 115.735% and 122.476% | 106.493% and 128.298% | 89.1059% and 82.6579% |
| COc1ccc(CCc2nc3cc(-c4c(C)noc4C)ccc3n2C[C@H](C)N2CCOCC2)cc1Cl | 102.391% and 140.496% | 95.0347% and 135.859% | 175.76% and 138.685% | 131.173% and 129.766% | 60.3888% and 74.4204% | 92.6649% and 71.2702% |
| COc1cc(N2CCC(O)CC2)ccc1Nc1cc(Nc2ccccc2S(=O)(=O)C(C)C)c2cc[nH]c2n1 | 85.5887% and 104.808% | 115.828% and 93.8467% | 110.737% and 120.851% | 95.8479% and 104.062% | 95.9238% and 77.0453% | 69.9407% and 56.4198% |
| CC[C@@H]1CN(C(=O)NCC(F)(F)F)C[C@@H]1c1cnc2cnc3[nH]ccc3n12 [UPADACITINIB] | 100.634% and 104.808% | 99.9708% and 92.6952% | 103.03% and 85.909% | 77.8559% and 94.8072% | 147.971% and 117.189% | 96.4317% and 92.8632% |
| CCC(=O)N[C@@H]1CC[C@H](C(=O)N(C)c2ccc(-c3nc4ccccc4o3)cc2)C1 [BI 99990] | 98.1271% and 82.0828% | 97.1544% and 80.6122% | 114.692% and 101.874% | 112.935% and 105.893% | 148.115% and 99.6283% | 106.898% and 85.8708% |
| COc1ccccc1C(=O)Nc1cc2c(cc1N1CCCC1)n(C)c(=O)n2C | 97.0271% and 91.1169% | 104.009% and 97.7327% | 152.076% and 120.081% | 178.087% and 127.616% | 131.649% and 89.49% | 142.608% and 94.0767% |
| CN(C)C(=O)c1ccc(-c2cc(C(=O)N(C)C3CCCC3)no2)cc1O | 136.03% and 124.037% | 110.351% and 113.842% | 136.959% and 113.074% | 141.385% and 104.673% | 101.196% and 104.096% | 94.5921% and 98.6379% |
| CC(C)S(=O)(=O)c1ccc2nccc(Nc3ccc4scnc4c3)c2c1 | 106.102% and 111.498% | 112.549% and 132.422% | 90.1117% and 127.973% | 127.825% and 117.429% | 127.216% and 102.228% | 64.4509% and 80.9853% |
| O=C(O)[C@@H]1[C@@H](Cn2nnc3ccccc3c2=O)CC[C@H]1C(=O)c1ccc(OCCC2CCOCC2)cc1 [BAY-694] | 110.342% and 94.3079% | 96.7199% and 85.7143% | 110.156% and 94.3794% | 134.213% and 84.5721% | 120.527% and 70.2416% | 178.043% and 104.564% |
| O=C(Nc1cccnc1)c1cc(-c2ccnc(F)c2)ccc1OCc1ccccc1 | 112.865% and 104.808% | 105.956% and 96.1497% | 114.96% and 114.62% | 124.178% and 97.892% | 214.708% and 117.189% | 126.13% and 109.87% |
| Cc1nnc2c3ccccc3c(N[C@@H](C)[C@H](c3ccccc3)N(C)C)nn12 | 132.945% and 134.618% | 79.559% and 84.8449% | 129.952% and 136.027% | 163.32% and 118.295% | 148.648% and 110.587% | 133.595% and 98.3529% |
| CCc1cc(Nc2nccc(-c3c(-c4ccc(OC)c(C(=O)Nc5c(F)cccc5F)c4)nc4ccccn34)n2)c(OC)cc1N1CCC(N2CCN(S(C)(=O)=O)CC2)CC1 | 80.3348% and 98.676% | 124.058% and 123.21% | 105.005% and 109.946% | 148.394% and 109.614% | 134.446% and 100.483% | 134.446% and 126.607% |
| COc1ccc2c(c1)O[C@@H](c1ccc(OC)c(OC)c1)C[C@H]2NC(=O)C1(c2ccc3c(c2)OC(F)(F)O3)CC1 [A-1596586] | 105.739% and 116.224% | 98.6022% and 86.1659% | 114.211% and 123.158% | 130.418% and 120.375% | 77.2703% and 96.7863% | 76.2669% and 106.86% |
| COc1cccc2c1C(=O)c1c(O)c3c(c(O)c1C2=O)CC(O)(C(=O)CO)CC3OC1CC(N)C(O)C(C)O1.Cl (stereo not given) | 24.67% and 46.8716% | 19.9524% and 41.0435% | 10.231% and 27.4494% | – | 17.7261% | 21.2234% |
| CC(=O)Nc1cccc(-n2c(=O)n(C3CC3)c(=O)c3c(Nc4ccc(I)cc4F)n(C)c(=O)c(C)c32)c1 [TRAMETINIB] | 17.3032% and 24.3122% | 17.3841% and 17.3982% | 5.765% and 5.759% | 5.411% and 4.125% | 7.185% and 14.6007% | 7.6439% and 10.8886% |
| CCC(F)(F)c1cc(N2CCC(S(C)(=O)=O)CC2)nc2sc(C(N)=O)c(N)c12 [BI-605906] | 102.215% and 104.22% | 98.7028% and 111.659% | 130.001% and 116.599% | 81.7833% and 117.011% | 110.631% and 99.0371% | 105.468% and 104.877% |
| O=C1NC(c2ccccn2)Sc2ccccc21 (stereo not given) [BTZO-4] | 96.9189% and 94.3079% | 102.382% and 84.6939% | 80.1051% and 90.1639% | 101.963% and 109.92% | 89.6903% and 76.6923% | 179.626% and 125.593% |
| CNCCN1CCC(c2cc(CN(C)C(=O)c3cccc(Oc4ccccc4)c3)ccn2)CC1 | 118.858% and 106.989% | 108.266% and 112.768% | 160.666% and 144% | 179.321% and 118.056% | 65.766% and 84.3895% | 110.837% and 98.923% |
| COc1cc2c(cc1NS(=O)(=O)c1ccc(Br)cc1C)n(C)c(=O)n2C | 90.5613% and 147.551% | 87.5695% and 113.305% | 85.4589% and 143.275% | 107.386% and 104.912% | 82.8669% and 66.0742% | 161.71% and 111.182% |
| Cc1ccc(-c2cnc([C@@]3(O)CC[C@H](C(=O)O)C(C)(C)C3)s2)cc1Nc1cccc(C(F)(F)F)n1 [MRL-SYKi-NC] | 112.056% and 96.0543% | 96.6815% and 86.7347% | 90.9085% and 96.9555% | 94.2486% and 84.0983% | 109.363% and 85.7712% | 161.475% and 115.078% |
| CO[C@@H](C)c1c(Nc2ccc([C@H](N(C)C(=O)C3CCS(=O)(=O)CC3)C(F)(F)F)cc2)cnc2cc(Cl)nn12 [NVS-MALT1] | 116.026% and 99.8545% | 97.0711% and 89.225% | 53.942% and 90.6073% | 65.826% and 102.355% | 78.0421% and 97.349% | 96.1339% and 95.7573% |
| C[C@@H]1CN(c2cc(-c3nn(C)c4ccc(OC5(C)CC5)cc34)ncn2)C[C@H](C)O1 [MLi-2-NC] | 92.869% and 94.89% | 95.8024% and 129.082% | 109.32% and 103.981% | 134.588% and 115.132% | 104.615% and 76.2145% | 63.1554% and 89.3757% |
| CCN(C(=O)CO)[C@H]1CN(/C(=N\C#N)Nc2cccc(OC(F)F)c2)N=C1c1ccc(Cl)c(Cl)c1 | 56.7523% and 64.6636% | 98.5958% and 108.473% | 122.514% and 121.772% | 131.133% and 123.792% | 95.5807% and 90.881% | 163.22% and 117.738% |
| COc1ccc2c(c1)O[C@H](c1ccc(OC)c(OC)c1)C[C@@H]2NC(=O)C1(c2ccc3c(c2)OC(F)(F)O3)CC1 [A-1596584] | 106.5% and 117.861% | 103.505% and 102.481% | 59.7741% and 88.9069% | 99.5304% and 111.725% | 121.374% and 104.664% | 90.4474% and 94.7661% |
| CCCCN(CCCC)C(=O)CN1C[C@@H](c2cc(OC)c3c(c2)OCO3)[C@H](C(=O)O)[C@H]1CC(C)(C)CCC [A-545] | 100.23% and 87.9043% | 101.691% and 84.1837% | 97.8309% and 86.6511% | 75.1695% and 72.7273% | 137.08% and 104.407% | 151.031% and 114.494% |
